From ChEMBL document CHEMBL1146576, “Anti-inflammatory lanostane-type triterpene acids from Piptoporus betulinus” (2003)

Experiments:
Type in all cases: functional
Mus musculus [1] = assay: Antiinflammatory activity in mouse assessed as inhibition of TPA-induced ear edema at 400 nmol
Mus musculus [2] = assay: Antiinflammatory activity in mouse assessed as inhibition of TPA-induced ear edema at 430 nmol
Mus musculus [3] = assay: Antiinflammatory activity in mouse assessed as inhibition of TPA-induced ear edema at 560 nmol

C=C(CC[C@@H](C)[C@H]1CC[C@@]2(C)C3=C(C[C@H](O)[C@]12C)[C@@]1(C)CC[C@@H](OC(=O)CC(=O)O)C(C)(C)[C@@H]1CC3)[C@H](C)C(=O)O
inhibition (INH) (Mus musculus [1]): 65%

C=C(CC[C@@H](C)[C@H]1CC[C@@]2(C)C3=C(C[C@H](O)[C@]12C)[C@@]1(C)CC[C@@H](OC(=O)CC(C)(O)CC(=O)OC)C(C)(C)[C@@H]1CC3)[C@H](C)C(=O)O (some centres not stated)
inhibition (INH) (Mus musculus [1]): 75%

C=C(CC[C@@H](C)[C@H]1CC[C@@]2(C)C3=C(C[C@H](O)[C@]12C)[C@@]1(C)CC[C@@H](OC(=O)C[C@](C)(O)CC(=O)OC)C(C)(C)[C@@H]1CC3)[C@H](C)C(=O)O
inhibition (INH) (Mus musculus [1]): 86%

CC1(C)[C@@H](O)CC[C@]2(C)[C@H]3C(=O)C=C4[C@@H]5C[C@@](C)(C(=O)O)CC[C@]5(C)CC[C@@]4(C)[C@]3(C)CC[C@@H]12 [ENOXOLONE]
inhibition (INH) (Mus musculus [2]): 24%

COc1ccc2c(c1)c(CC(=O)O)c(C)n2C(=O)c1ccc(Cl)cc1 [INDOMETHACIN]
inhibition (INH) (Mus musculus [3]): 16%

C=C(CC[C@@H](C)[C@H]1CC[C@@]2(C)C3=C(C[C@H](O)[C@]12C)[C@@]1(C)CC[C@@H](O)C(C)(C)[C@@H]1CC3)[C@H](C)C(=O)O [POLYPORENIC ACID A]
inhibition (INH) (Mus musculus [1]): 64%

C=C(CC[C@@H](C(=O)O)[C@H]1[C@H](O)C[C@@]2(C)C3=CC[C@H]4C(C)(C)C(=O)CC[C@]4(C)C3=CC[C@]12C)C(C)C [POLYPORENIC ACID B]
inhibition (INH) (Mus musculus [1]): 49%
